Measurements taken from patent US20250066366A1, “Crystal form of isobutyrate nucleoside compound, and preparation method” (Shenzhen AntiV Pharma Co., Ltd., priority 2021, published 2025).
≈ marks a conversion by molar mass, not a printed value. Like-named read-outs stand apart in the source and are kept apart here. Marks after values point to notes of the source that are not given here.

Tests used:
Format in all cases: physicochemical
[1] = Solubility test in biological media (SGF, FaSSIF, FeSSIF) and water at 37° C.; details: for pH (24 h): solution pH after 24 h; for solubility at 0.5 h: read-out: Solubility (mg/mL) 0.5 h; for solubility at 2 h: read-out: Solubility (mg/mL) 2 h; for solubility at 24 h: read-out: Solubility (mg/mL) 24 h
Description: Crystalline form III has the highest solubility in SGF (>7 mg/mL). The solubility in pure water, FeSSIF, and FaSSIF were all greater than 1 mg/mL.

[2] = Dynamic water vapor adsorption detection of crystalline form III
[3] = Solid state stability test (XRPD and HPLC); details: for Purity-1 week (Peak area %): HPLC, initial purity 99.71%; for Crystal-1 week: XRPD
From the text: (§1) X-ray powder diffraction patterns were collected on a PANalytical Empyrean X-ray diffractometer of the Netherlands equipped with a transmission-reflection sample stage with an automated 3*15 zero background sample holder. The radiation source used was (Cu, kα, Kα1 (Å): 1.540598; Kα2 (Å): 1.544426; Kα2/Kα1 intensity ratio: 0.50), wherein the voltage was set at 45 KV and the current was set at 40 mA. The beam divergence of the X-rays, i.e. the effective size of the X-ray confinement on the sample, was 6.6 mm. The continuous scanning mode of θ-θ was adopted, and an effective 2θ range of 3° to 40° was obtained. A proper amount of sample was placed at the position of the circular groove of the zero-background sample rack under the environmental condition (about 18° C. to 32° C.), the sample was lightly pressed with a clean glass slide to obtain a flat plane, and the zero-background sample rack was fixed. The samples were scanned at a scan step of 0.013° in the range of 3° to 40° 2θ±0.2° to obtain a traditional X-ray powder diffraction pattern.
The instrument used for liquid chromatography analysis is Agilent HPLC 1260 series, which is used for the analysis of solid-state stability of samples.
A certain amount of crystalline form III of compound A as a sample was placed under conditions of 40° C./75% RH (open) and 60° C. (closed) for one week, and XRPD and HPLC of the sample were tested.

[4] = Grinding experiment of crystalline form III (XRPD after manual grinding); details: ground manually with mortar and pestle for 5 minutes
From the text: as §1
Crystalline form III was ground manually with a mortar and pestle for 5 minutes, and XRPD of the ground solid was tested.

For `CC(C)C(=O)OC[C@H]1O[C@@](C#N)(c2ccc3c(N)ncnn23)[C@H](O)[C@@H]1O` [crystalline form III, ((2R,3S,4R,5R)-5-(4-aminopyrrolo[2,1-f][1,2,4]triazin-7-yl)-5-cyano-3,4-dihydroxytetrahydrofuran-2-yl) methyl isobutyrate], the “pH (24 h)” value ([1]; FaSSIF (pH = 6.53)) was 6.50, the “pH (24 h)” value ([1]; FeSSIF (pH = 4.97)) was 4.96 and the “Solubility (mg/mL)” value ([1]; SGF (pH = 1.20), 0.5 h, 2 h, 24 h, visual observation) was >7* mg/mL. For the same compound, the “pH (24 h)” value ([1]; SGF (pH = 1.20)) was 1.37, the “change in solution pH after the solubility test” value ([1]; SGF, FaSSIF, FeSSIF and water) was “no significant change” and the “pH (24 h)” value ([1]; Water (pH = 6.67)) was 6.43. It also gave a solubility ([1]; pH 1.2, simulated gastric fluid, thermodynamic from solid, SGF (pH = 1.20), 0.5 h, 2 h, 24 h, visual observation) of over 7000 µg/mL, a solubility ([1]; pH 4.97, thermodynamic from solid, FeSSIF) of over 1000 µg/mL and a solubility ([1]; pH 6.53, thermodynamic from solid, FaSSIF) of over 1000 µg/mL. The solubility ([1]; pH 6.67, thermodynamic from solid, pure water) was over 1000 µg/mL, the “XRPD (24 h)” value ([1]; solid after 24 h in FaSSIF (pH = 6.53)) was “Crystalline” and the “XRPD (24 h)” value ([1]; solid after 24 h in FeSSIF (pH = 4.97)) was “Crystalline”. For the same compound, the “XRPD (24 h)” value ([1]; solid after 24 h in Water (pH = 6.67)) was “Crystalline”, the solubility at 0.5 h ([1]; thermodynamic from solid, FaSSIF (pH = 6.53), 0.5 h) was 1.22 mg/mL (≈ 3.38 mM) and the solubility at 2 h ([1]; thermodynamic from solid, FaSSIF (pH = 6.53), 2 h) was 1.26 mg/mL (≈ 3.49 mM). For the same compound, the solubility at 24 h ([1]; thermodynamic from solid, FaSSIF (pH = 6.53), 24 h) was 1.19 mg/mL (≈ 3.29 mM), the solubility at 0.5 h ([1]; thermodynamic from solid, FeSSIF (pH = 4.97), 0.5 h) was 1.63 mg/mL (≈ 4.51 mM) and the solubility at 2 h ([1]; thermodynamic from solid, FeSSIF (pH = 4.97), 2 h) was 1.66 mg/mL (≈ 4.59 mM). It also gave a solubility at 24 h ([1]; thermodynamic from solid, FeSSIF (pH = 4.97), 24 h) of 1.68 mg/mL (≈ 4.65 mM), a solubility at 0.5 h ([1]; thermodynamic from solid, Water (pH = 6.67), 0.5 h) of 1.11 mg/mL (≈ 3.07 mM) and a solubility at 2 h ([1]; thermodynamic from solid, Water (pH = 6.67), 2 h) of 1.22 mg/mL (≈ 3.38 mM). The solubility at 24 h ([1]; thermodynamic from solid, Water (pH = 6.67), 24 h) was 1.24 mg/mL (≈ 3.43 mM), the weight gain ([2]; 80% RH and 25° C.) was “less than 0.2%” and the “crystalline form after testing” value ([2]; after dynamic water vapor adsorption test) was “did not change”. The hygroscopicity ([2]; dynamic water vapor adsorption test) was “does not have hygroscopicity”, the “Purity-1 week (Peak area %)” value ([3]; 40° C./75% RH, open, listed as Sample 1) was 99.68% and the “Purity-1 week (Peak area %)” value ([3]; 40° C./75% RH, open, listed as Sample 2) was 99.71%. The Crystal-1 week ([3]; 40° C./75% RH, open) was “No change”, the “Purity-1 week (Peak area %)” value ([3]; 60° C. & closed, listed as Sample 1) was 99.71% and the “Purity-1 week (Peak area %)” value ([3]; 60° C. & closed, listed as Sample 2) was 99.65%. For the same compound, the Crystal-1 week ([3]; 60° C. & closed) was “No change”, the “physical and chemical stability” value ([3]; two acceleration conditions (40° C./75% RH open, 60° C. closed) for 14 days) was “physically and chemically stable” and the “crystalline structure after grinding (XRPD)” value [4] was “did not change”.
